In patent US11433086B2, “Combination of T-cell checkpoint inhibitors with inhibitors of e-selectin or CXCR4, or with heterobifunctional inhibitors of both E-selectin and CXCR4” (GlycoMimetics, Inc., priority 2016, dated 2022):

Tests used:
[1] = system: subcutaneous CT26.WT carcinoma xenografts; assay: Anti-cancer activity against subcutaneous CT26.WT carcinoma in Balb/c mice (tumor growth delay, response status); type: in vivo; design: key to Tumor Growth Delay, statistical comparison vs G1 (Vehicle (Saline)) / Tumor Growth Delay, statistical comparison vs G2 (GMI-1359) / Tumor Growth Delay, statistical comparison vs G3 (anti KLH; Rat IgG2b, LTF-2) / Tumor Growth Delay, statistical comparison vs G4 (anti-mPD-L1) / Tumor Growth Delay, statistical comparison vs G5 (GMI-1359 + anti KLH; Rat IgG2b, LTF-2) / Tumor Growth Delay, statistical comparison vs G6 (GMI-1359 + anti-mPD-L1) / Tumor Growth Delay, statistical comparison vs G7 (Vehicle (Saline)): + = P < 0.05; NS = Nonsignificant
Experimental: The anti-cancer activity of an anti-mPD-L1 antibody (10F.9G2) and GMI-1359 was compared to a rat isotype control antibody against indeterminate subcutaneous CT26.WT carcinoma xenografts in female Balb/c mice. An immune profile of each mouse was determined by sampling tumors and spleens, staining for several markers of an active immune response, and detecting the levels of these markers via flow cytometry. Flow cytometry markers included: T-Cells (CD4^+ and CD8^+), Regulatory T-Cells (Tregs). (CD4^+/CD25^+/FoxP3^+), MDSCs (CD11b^+/Gr1^+) and co-expression of CCR7^+ and CD62^+ added to the existing CD4/CD8 panel.
CT26.WT cells were grown in RPMI 1640 medium which was modified with 1 mM Na pyruvate, 10 mM HEPES, 2.5 g/L glucose and supplemented with 10% nonheat-inactivated Fetal Bovine Serum (FBS) and 1% 100X Penicillin/Streptomycin/L-Glutamine (PSG). The growth environment was maintained in an incubator with a 5% CO2 atmosphere at 37° C.
When expansion was complete, the cells were trypsinized using 0.25% trypsin-EDTA solution. Following cell detachment, the trypsin was inactivated by dilution with complete growth medium and any clumps of cells were separated by pipetting. The cells were centrifuged at 200 rcf for 8 minutes at 4° C., the supernatant was aspirated, and the pellet was re-suspended in cold Dulbecco's Phosphate Buffered Saline (DPBS) by pipetting. An aliquot of the homogeneous cell suspension was diluted in a trypan blue solution and counted using a Luna automated cell counter. The preimplantation cell viability was 92%. The cell suspension was centrifuged at 200 rcf for 8 minutes at 4° C. The supernatant was aspirated and the cell pellet was re-suspended in cold serum-free medium to generate a final concentration of 2.50E+06 trypan-excluding cells/mi. The cell suspension was maintained on wet ice during implantation. Following implantation, an aliquot of the remaining cells was diluted with a trypan blue solution and counted to determine the post-implantation cell viability (91%).
Test animals were implanted subcutaneously, high in the axilla (just under the fore limb) on Day 0 with 5.00E+05 cells in 0.2 ml of serum-free medium using a 27-gauge needle and syringe.
All mice were sorted into study groups based on body weights such that the mean body weights in each group was within 10% of the overall mean. Treatment began on Day 3.
GMI-1359 was dosed intraperitoneally at 40 mg/kg, every day for 20 days (Days 3-22) and every day for 12 days (Days 3-14) for Groups 2 and 8, respectively.
Anti-KLH; Rat IgG2b, LTF-2 was dosed intraperitoneally at 10 mg/kg, every 3 days for 2 treatments, with 3 days off for 2.5 weeks (Days 3, 6, 10, 13 and 17) for Group 3. Group 9 was dosed intraperitoneally at 10 mg/kg, every 3 days for 2 treatments, with 3 days off for 2 weeks (Days 3, 6, 10 and 13).
Groups 4 and 10: Anti-mPD-L1, 10F.9G2 was dosed intraperitoneally at 10 mg/kg, every 3 days for 2 treatments, with 3 days off for 2.5 weeks (Days 3, 6, 10, 13 and 17) for Group 4.
Group 10 was dosed intraperitoneally at 10 mg/kg, every 3 days for 2 treatments, with 3 days off for 2 weeks (Days 3, 6, 10 and 13).
GMI-1359 was dosed in combination with anti-KLH; Rat IgG2b, LTF intraperitoneally at 40 mg/kg and 10 mg/kg, respectively. In Group 5, GMI-1359 was dosed once a day for 20 days (Days 3-22) and anti-KLH; Rat IgG2b was given every 3 days for 2 treatments, with 3 days off for 2.5 weeks (Days 3, 6, 10, 13 and 17). In Group 11, GMI-1359 was dosed once a day for 12 days (Days 3-14) and anti-KLH; Rat IgG2b was dosed every 3 days for 2 treatments, with 3 days off for 2 weeks and (Days 3, 6, 10 and 13). On days when both compounds were dosed, GMI-1359 was given first and then anti-KLH; Rat IgG2b, LTF was given within minutes thereafter.
Groups 6 and 12: GMI-1359 and anti-mPD-L1, 10F.9G2 were dosed in a combination regimen intraperitoneally at 40 mg/kg and 10 mg/kg, respectively. […]

[2] = system: Human E-selectin/Ig chimera; assay: Competitive binding assay, sLe^a-polyacrylamide conjugate to immobilized E-selectin; settings: sLe^a-polyacrylamide/streptavidin-HRP conjugate
Experimental: FIG. 21 relates to an experiment carried out to determine the competitive binding activity (IC50) of GMI-1359 against E-selectin and CXCR4. GMI-1359 was assessed for inhibition of sialyl Le^X binding to immobilized E-selectin and α-CXCR4 antibody binding to Raji cells.
The inhibition assay to screen GMI-1359 as an antagonist of E-selectin was a competitive binding assay, which allowed the determination of IC50 values. Human E-selectin/Ig chimera was immobilized by incubation at 37° C. for 2 hour in 96-well microtiter plates. To reduce nonspecific binding, BSA was added to each well and incubated at room temperature for 2 hours. After incubation with E-selectin/Ig chimera, the plate was washed and serial dilutions of the test compounds were added to the wells in the presence of conjugates of biotinylated, sLe^a-polyacrylamide with streptavidin/horseradish peroxidase and incubated for 2 hours at room temperature. To determine the amount of sLe^a bound to immobilized E-selectin after washing, the peroxidase substrate, 3,3′,5,5′ tetramethylbenzidin (TMB) was added. After 3 minutes, the enzyme reaction was stopped by the addition of H3PO4, and the absorbance of light at a wavelength of 450 nm was determined. […]

[3] = listed as groups G8-G12 (sampling groups)
[4] = printed directly after the Group 8 / Group 12 values, group not named

SMILES: CCC1CC(C(=O)NCCNCc2ccc(CN3CCCNCCNCCCNCC3)c(Br)c2)CC(OC2OC(CO)C(O)C(O[C@@H](CC3CCCCC3)C(=O)O)C2NC(C)=O)C1OC1OC(C)C(O)C(O)C1O (stereo partly shown) [GMI-1359]
- disease status of the group ([1]; Group 2, single agent): all animals were identified with progressive disease
- statistical significance of anti-tumor effect ([1]; Groups 2, 4, 6): did not produce a statistically significant (p>0.05) anti-tumor effect
- regressions or tumor free survivors ([1]; Groups 2-6): no regressions or tumor free survivors
- median time to evaluation size (750 mm^3) from the start of dosing ([1]; Groups 2-6: GMI-1359 40 mg/kg IP QDx20 (Days 3-22), antibody 10 mg/kg IP Days 3,6,10,13,17): 18.4 days
- median post Day 9 tumor volume doubling time ([1]; Groups 2-6: GMI-1359 40 mg/kg IP QDx20, antibody 10 mg/kg IP Days 3,6,10,13,17): 3.3 days
- incidence of progressive disease ([1]; Groups 2-6, tumor burden >=2 fold that on Day 9): 100%
- tumor growth delay (T-C) ([1]; Groups 2-6 vs Group 1 saline, evaluation size 750 mm^3, GMI-1359 40 mg/kg IP QDx20, antibody 10 mg/kg IP Days 3,6,10,13,17): 2.5 days
- regressions or tumor free survivors ([1]; Groups 8-12 (sampling groups)): no regressions or tumor free survivors
- incidence of progressive disease ([1]; Groups 8-12 (sampling groups, euthanized Day 15)): 100%
- median time to evaluation size ([1]; Groups 8-12: GMI-1359 40 mg/kg IP QDx12 (Days 3-14), antibody 10 mg/kg IP Days 3,6,10,13, euthanized Day 15): 14.3 days
- median post Day 9 tumor volume doubling time ([1]; Groups 8-12: GMI-1359 40 mg/kg IP QDx12, antibody 10 mg/kg IP Days 3,6,10,13, euthanized Day 15): 1.8 days
- Tumor Growth Delay, statistical comparison vs G1 (Vehicle (Saline)) ([1]; listed as groups G2-G6, time to evaluation size 750 mm^3): NS
- Tumor Growth Delay, statistical comparison vs G1 (Vehicle (Saline)) [1, 3]: NS
- Tumor Growth Delay, statistical comparison vs G2 (GMI-1359) [1, 3]: NS
- Tumor Growth Delay, statistical comparison vs G3 (anti KLH; Rat IgG2b, LTF-2) [1, 3]: NS
- Tumor Growth Delay, statistical comparison vs G4 (anti-mPD-L1) [1, 3]: NS
- Tumor Growth Delay, statistical comparison vs G5 (GMI-1359 + anti KLH; Rat IgG2b, LTF-2) [1, 3]: NS
- Tumor Growth Delay, statistical comparison vs G6 (GMI-1359 + anti-mPD-L1) [1, 3]: NS
- Tumor Growth Delay, statistical comparison vs G7 (Vehicle (Saline)) [1, 3]: NS
- median time to progression [1, 4]: 14.5 days
- progression free survival period [1, 4]: 5.5 days
- inhibition of ligand binding to E-selectin [2]: inhibits ligand binding
